# In US20110207726A1, “Inhibitors of Human Cathepsin L, Cathepsin B, and Cathepsin S” (The Trustees of the University of Pennsylvania, priority 2008, published 2011):
# Read-outs that look alike come from different tables or passages of the source.
# Key:
# Format in all cases: biochemical
# human liver cathepsin L = target: T1, human liver cathepsin L (Homo sapiens, UniProt P07711); test: Cathepsin L assay, IC50 determination
# T1 construct: 8.7 ng/mL human liver cathepsin L (Calbiochem 219402); purchased Calbiochem 219402; host or cells: human liver
# Method: Assay buffer consisted of 20 mM sodium acetate, 1 mM ethylenediaminetetraacetic acid (EDTA) and 5 mM cysteine, pH 5.5. Cathepsin L was incubated in assay buffer for 30 minutes prior to dispensing into wells to allow for efficient reduction of the active site cysteine required for full enzymatic activity.
# Upon activation, cathepsin L (300 pM, 8.7 ng/mL) was incubated with 1 microM Z-Phe-Arg-AMC substrate (Sigma C9521) and test compound in […] of assay buffer for 1 hour at room temperature.
# All reactions were performed in 20 mM sodium acetate buffer containing 5 mM cysteine and 1 mM EDTA, pH 5.5. Reaction progress was monitored using the Envision microplate reader. IC50 values were measured in triplicate.
# Human spleen cathepsin S = target: T2, Human spleen cathepsin S (Homo sapiens, UniProt P25774); test: Cathepsin S assay, IC50 determination
# T2 construct: Human spleen cathepsin S (Calbiochem 219344, 40 ng/mL); purchased Calbiochem 219344; host or cells: human spleen
# Method: (§1) Human spleen cathepsin S (Calbiochem 219344, 40 ng/mL) was assayed using 15 microM Z-Phe-Arg-AMC substrate. Human liver cathepsin B (Calbiochem 219362, 65 ng/mL) was assayed using 15 microM Z-Arg-Arg-AMC substrate (Bachem I-1135). All reactions were performed in 20 mM sodium acetate buffer containing 1 mM EDTA and 5 mM cysteine, pH 5.5.
# (§2) Compounds were serially diluted in DMSO and transferred into a 96-well Corning 3686 assay microplate to give a 16-point two-fold serial dilution dose response ranging from 25 microM to 760 pM. Human liver cathepsin L (Calbiochem 219402) was activated by incubating with assay buffer for 30 min. Upon activation, cathepsin L (300 pM, 8.7 ng/mL) was incubated with 1 microM Z-Phe-Arg-AMC substrate (Sigma C9521) and test compound in […] of assay buffer for 1 hour at room temperature. Fluorescence of AMC released by enzyme-catalyzed hydrolysis of Z-Phe-Arg-AMC was read on a PerkinElmer Envision microplate reader (excitation 355 nm, emission 460 nm). Data were scaled using internal controls and fitted to a four-parameter logistic model (IDBS XLfit equation 205) to obtain IC50 values in triplicate.
# (§3) Compound No. 1 was assayed for inhibition against papain and cathepsins B, G, K, S, and V. Papain from Carica papaya (Calbiochem 5125, 11 ng/mL), human cathepsin K (Calbiochem 342001, 35 ng/mL), human spleen cathepsin S (Calbiochem 219344, 40 ng/mL), and human cathepsin V (Calbiochem 219467, 39 ng/ml) were assayed using Z-Phe-Arg-AMC substrate at 20 μM, 20 μM, 15 μM, and 1 μM, respectively. Human liver cathepsin B (Calbiochem 219362, 65 ng/mL) was assayed using 15 μM Z-Arg-Arg-AMC substrate (Bachem I-1135). Human neutrophil cathepsin G (Calbiochem 219373, 4.2 μg/mL) was assayed using 15 μM Suc-Ala-Ala-Pro-Phe-AMC substrate (Sigma S9761). All reactions were performed in 20 mM sodium acetate buffer containing 5 mM cysteine and 1 mM EDTA, pH 5.5. Reaction progress was monitored using the Envision microplate reader. IC50 values were measured in triplicate.
# Human liver cathepsin B = target: T3, Human liver cathepsin B (Homo sapiens, UniProt P07858); test: Cathepsin B assay, IC50 determination
# T3 construct: Human liver cathepsin B (Calbiochem 219362, 65 ng/mL); purchased Calbiochem 219362; host or cells: human liver
# Method: as §1, §2, §3
# T2 sequence (P25774 115-331): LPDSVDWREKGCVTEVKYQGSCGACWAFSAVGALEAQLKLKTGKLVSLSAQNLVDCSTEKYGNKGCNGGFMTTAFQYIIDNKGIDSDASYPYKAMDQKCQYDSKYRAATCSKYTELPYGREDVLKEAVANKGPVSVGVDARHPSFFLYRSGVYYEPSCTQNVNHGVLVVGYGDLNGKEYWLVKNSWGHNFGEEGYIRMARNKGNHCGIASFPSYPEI
# T1 sequence (P07711 114-288 limits assumed): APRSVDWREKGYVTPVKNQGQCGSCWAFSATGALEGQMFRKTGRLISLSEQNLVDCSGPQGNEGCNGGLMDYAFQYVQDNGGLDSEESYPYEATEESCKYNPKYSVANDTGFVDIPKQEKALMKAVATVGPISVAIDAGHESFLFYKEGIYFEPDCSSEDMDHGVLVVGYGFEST
# T1 sequence (P07711 292-333 limits assumed): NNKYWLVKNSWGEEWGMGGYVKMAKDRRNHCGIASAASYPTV
Structure (SMILES),"IC50 (human liver cathepsin L; Tables 2-11, read-out: Cat L)","IC50 (Human spleen cathepsin S; Tables 2-11, read-out: Cat S)","IC50 (Human liver cathepsin B; Tables 2-11, read-out: Cat B)","IC50 (human liver cathepsin L; Table 1, read-out: IC50 Cat L)","IC50 (Human spleen cathepsin S; Table 1, read-out: IC50 Cat S)","IC50 (Human liver cathepsin B; Table 1, read-out: IC50 Cat B)"
C/C=C(/C=O)[C@@H](CC=O)CC(=O)OCCc1ccc(O)cc1 [Compound No. 121],≥ 25 µM,≥ 25 µM,≥ 25 µM,,,
CCc1ccccc1NC(=O)CSC(=O)NNC(=O)[C@@H](NC(=O)OC(C)(C)C)C(C)OCc1ccccc1 (stereo partly drawn) [Compound No. 44],,,,13.7 µM,3.32 µM,3.67 µM
CC(C)[C@@H](CC(=O)NNC(=O)SCC(=O)N1CCCc2ccccc21)NC(=O)OC(C)(C)C [Compound No. 79],,,,> 25 µM,> 25 µM,15.8 µM
CC(C)(C)OC(=O)N[C@@H](Cc1c[nH]c2ccccc12)C(=O)NNC(=O)CCC(=O)N1CCCc2ccccc21 [Compound No. 115],≥ 25 µM,≥ 25 µM,≥ 25 µM,,,
CC(C)(C)OC(=O)N[C@@H](Cc1c[nH]c2ccccc12)C(=O)NOCC(=O)N1CCCc2ccccc21 [Compound No. 120],≥ 25 µM,≥ 25 µM,≥ 25 µM,,,
CCc1ccccc1NC(=O)CSC(=O)NNC(=O)C[C@@H](NC(=O)OC(C)(C)C)C(C)C [Compound No. 78],,,,7.52 µM,> 25 µM,11.5 µM
CC(C)(C)OC(=O)N1CCC[C@H]1CC(=O)NNC(=O)SCC(=O)N1CCCc2ccccc21 [Compound No. 81],,,,> 25 µM,> 25 µM,> 25 µM
CCc1ccccc1NC(=O)CSC(=O)NNC(=O)CCc1c[nH]c2ccccc12 [Compound No. 73],,,,> 25 µM,> 25 µM,> 25 µM
CCc1ccccc1NCCSC(=O)NNC(=O)[C@H](CC(C)C)NC(=O)OC(C)(C)C [Compound No. 30],,,,> 25 µM,> 25 µM,> 25 µM
CCOC(=O)c1cccc(NC(=O)CSC(=O)NNC(=O)[C@H](Cc2c[nH]c3ccccc23)NC(=O)OC(C)(C)C)c1 [Compound No. 8],,,,0.062 µM,0.68 µM,> 25 µM
CC(C)(C)OC(=O)N[C@H](COCc1ccccc1)CC(=O)NNC(=O)SCC(=O)N1CCCc2ccccc21 [Compound No. 85],,,,> 25 µM,> 25 µM,> 25 µM
CC(C)(C)OC(=O)N[C@@H](Cc1ccc(OCc2ccccc2)cc1)C(=O)NNC(=O)SCC(=O)N1CCOc2ccccc21 [Compound No. 41],,,,1.56 µM,3.98 µM,3.03 µM
CCc1ccccc1NC(=O)CSC(=O)NNC(=O)[C@@H]1CCCN1C(=O)OC(C)(C)C [Compound No. 32],,,,> 25 µM,> 25 µM,> 25 µM
CCc1ccccc1NC(=O)CSC(=O)NNC(=O)C[C@@H](COCc1ccccc1)NC(=O)OC(C)(C)C [Compound No. 84],,,,> 25 µM,15.2 µM,> 25 µM
CC(C)(C)OC(=O)N1CCC[C@H]1C(=O)NNC(=O)SCC(=O)N1CCCc2ccccc21 [Compound No. 33],,,,> 25 µM,> 25 µM,> 25 µM
CC(C)(C)OC(=O)N[C@@H](COCc1ccccc1)C(=O)NNC(=O)SCC(=O)NCCc1ccccc1 [Compound No. 51],,,,0.51 µM,0.65 µM,> 25 µM
CC(C)(C)OC(=O)N[C@@H](Cc1c[nH]c2ccccc12)C(=O)NNC(=O)SCC(=O)N1CCOc2ccccc21 [Compound No. 10],,,,0.22 µM,0.95 µM,3.23 µM
CC(C)(C)OC(=O)N[C@@H](Cc1ccc(OC(=O)OC(C)(C)C)cc1)C(=O)NNC(=O)C(=O)N1CCc2ccccc2C1 [Compound No. 127],≥ 25 µM,≥ 25 µM,≥ 25 µM,,,
CSCC[C@H](NC(=O)OC(C)(C)C)C(=O)NNC(=O)c1ccccc1 [Compound No. 116],≥ 25 µM,≥ 25 µM,≥ 25 µM,,,
CC(C)(C)OC(=O)N[C@@H](Cc1c[nH]c2ccccc12)C(=O)NNC(=O)SCC(=O)NCCc1ccccc1 [Compound No. 7],,,,0.029 µM,0.32 µM,6.59 µM
CCOC(=O)c1ccc(NC(=O)CSC(=O)NNC(=O)[C@H](Cc2c[nH]c3ccccc23)NC(=O)OC(C)(C)C)cc1 [Compound No. 9],,,,0.057 µM,0.58 µM,> 25 µM
CSCC[C@@H](CC(=O)NNC(=O)SCC(=O)N1CCCc2ccccc21)NC(=O)OC(C)(C)C [Compound No. 77],,,,6.95 µM,3.01 µM,> 25 µM
CCc1ccccc1NC(=O)CSC(=O)NNC(=O)C[C@H](C)NC(=O)OC(C)(C)C [Compound No. 74],,,,> 25 µM,> 25 µM,> 25 µM
CC(C)(C)OC(=O)N[C@@H](Cc1ccc(OCc2ccccc2)cc1)C(=O)NNC(=O)SCC(=O)N1CCc2ccccc21 [Compound No. 40],,,,0.7 µM,8 µM,3.12 µM
CC(C)(C)OC(=O)N[C@@H](Cc1c[nH]c2ccccc12)C(=O)NNC(=O)[C@@H](Cc1c[nH]c2ccccc12)NC(=O)OC(C)(C)C [Compound No. 117],≥ 25 µM,≥ 25 µM,≥ 25 µM,,,
CC(C)(C)OC(=O)N[C@@H](COCc1ccccc1)C(=O)NNC(=O)SCC(=O)Nc1ccccc1[N+](=O)[O-] [Compound No. 55],,,,0.7 µM,1.44 µM,5.07 µM
CC(C)(C)OC(=O)N[C@H](COCc1ccccc1)C(=O)NNC(=O)SCC(=O)N1CCCc2ccccc21 [Compound No. 49],,,,17.9 µM,5.89 µM,> 25 µM
C[C@@H](CO)C(=O)NNC(=O)SCC(=O)N1CCCc2ccccc21 [Compound No. 70],,,,> 25 µM,> 25 µM,> 25 µM
CCc1ccccc1NC(=O)CSC(=O)NNC(=O)[C@H](Cc1ccc(OCc2ccccc2)cc1)NC(=O)OC(C)(C)C [Compound No. 36],,,,0.83 µM,2.83 µM,5.08 µM
CC(C)[C@H](NC(=O)OC(C)(C)C)C(=O)NNC(=O)SCC(=O)N1CCCc2ccccc21 [Compound No. 22],,,,0.68 µM,4.24 µM,0.63 µM
